Test results taken from patent publication US10590140B2, “Tetrahydropyrimidodiazepine and dihydropyridodiazepine compounds for treating pain and pain related conditions” (ESTEVE PHARMACEUTICALS, S.A., priority 2016, dated 2020).
Where two headings read alike, the source gives them in different places.

Assays:
[1] = target: human norepinephrine transporter (NET) (Homo sapiens (Human), UniProt P23975); test: Binding assay to human norepinephrine transporter (NET) ([3H]-Nisoxetin); details: Table 2, dual compounds; [3H]-Nisoxetin binding
Chain of human norepinephrine transporter (NET) (P23975 whole entry): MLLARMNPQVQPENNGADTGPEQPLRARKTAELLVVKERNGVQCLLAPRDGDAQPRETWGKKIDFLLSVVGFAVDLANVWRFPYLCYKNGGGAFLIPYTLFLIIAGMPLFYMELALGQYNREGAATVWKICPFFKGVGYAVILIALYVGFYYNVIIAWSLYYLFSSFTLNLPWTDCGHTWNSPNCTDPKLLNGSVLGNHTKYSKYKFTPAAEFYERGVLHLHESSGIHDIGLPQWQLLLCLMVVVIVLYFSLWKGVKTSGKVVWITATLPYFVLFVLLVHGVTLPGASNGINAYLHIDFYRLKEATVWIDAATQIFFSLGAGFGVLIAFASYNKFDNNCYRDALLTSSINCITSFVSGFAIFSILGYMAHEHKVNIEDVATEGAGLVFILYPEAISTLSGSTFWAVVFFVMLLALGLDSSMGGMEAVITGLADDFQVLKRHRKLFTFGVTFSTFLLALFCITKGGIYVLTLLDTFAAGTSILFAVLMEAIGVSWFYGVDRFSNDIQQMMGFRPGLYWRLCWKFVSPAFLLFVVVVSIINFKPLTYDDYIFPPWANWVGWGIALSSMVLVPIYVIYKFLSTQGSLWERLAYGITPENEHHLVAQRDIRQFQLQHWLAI
Method: Binding Assay to Human Norepinephrine Transporter (NET).
Human norepinephrine transporter (NET) enriched membranes (5 μg) were incubated with 5 nM of radiolabeled [3H]-Nisoxetin in assay buffer containing 50 mM Tris-HCl, 120 mM NaCl, 5 mM KCl, pH 7.4.
NSB (non specific binding) was measured by adding 1 μM. After 60 min incubation at 4° C., binding reaction was terminated by filtering through Multiscreen GF/C (Millipore) presoaked in 0.5% polyethyleneimine in Vacuum Manifold Station, followed by 3 washes with ice-cold filtration buffer containing 50 mM Tris-HCl, 0.9% NaCl, pH 7.4.
Filter plates were dried at 60° C. for 1 hour and 30 μl of scintillation cocktail were added to each well before radioactivity reading.

[2] = target: human α2δ-1 subunit of Cav2.2 calcium channel (Homo sapiens (Human), UniProt P54289); test: Binding assay to human α2δ-1 subunit of Cav2.2 calcium channel ([3H]-Gabapentin); details: read-out: Ki (nM) α2δ-1
Chain of human α2δ-1 subunit of Cav2.2 calcium channel (P54289 25-1103): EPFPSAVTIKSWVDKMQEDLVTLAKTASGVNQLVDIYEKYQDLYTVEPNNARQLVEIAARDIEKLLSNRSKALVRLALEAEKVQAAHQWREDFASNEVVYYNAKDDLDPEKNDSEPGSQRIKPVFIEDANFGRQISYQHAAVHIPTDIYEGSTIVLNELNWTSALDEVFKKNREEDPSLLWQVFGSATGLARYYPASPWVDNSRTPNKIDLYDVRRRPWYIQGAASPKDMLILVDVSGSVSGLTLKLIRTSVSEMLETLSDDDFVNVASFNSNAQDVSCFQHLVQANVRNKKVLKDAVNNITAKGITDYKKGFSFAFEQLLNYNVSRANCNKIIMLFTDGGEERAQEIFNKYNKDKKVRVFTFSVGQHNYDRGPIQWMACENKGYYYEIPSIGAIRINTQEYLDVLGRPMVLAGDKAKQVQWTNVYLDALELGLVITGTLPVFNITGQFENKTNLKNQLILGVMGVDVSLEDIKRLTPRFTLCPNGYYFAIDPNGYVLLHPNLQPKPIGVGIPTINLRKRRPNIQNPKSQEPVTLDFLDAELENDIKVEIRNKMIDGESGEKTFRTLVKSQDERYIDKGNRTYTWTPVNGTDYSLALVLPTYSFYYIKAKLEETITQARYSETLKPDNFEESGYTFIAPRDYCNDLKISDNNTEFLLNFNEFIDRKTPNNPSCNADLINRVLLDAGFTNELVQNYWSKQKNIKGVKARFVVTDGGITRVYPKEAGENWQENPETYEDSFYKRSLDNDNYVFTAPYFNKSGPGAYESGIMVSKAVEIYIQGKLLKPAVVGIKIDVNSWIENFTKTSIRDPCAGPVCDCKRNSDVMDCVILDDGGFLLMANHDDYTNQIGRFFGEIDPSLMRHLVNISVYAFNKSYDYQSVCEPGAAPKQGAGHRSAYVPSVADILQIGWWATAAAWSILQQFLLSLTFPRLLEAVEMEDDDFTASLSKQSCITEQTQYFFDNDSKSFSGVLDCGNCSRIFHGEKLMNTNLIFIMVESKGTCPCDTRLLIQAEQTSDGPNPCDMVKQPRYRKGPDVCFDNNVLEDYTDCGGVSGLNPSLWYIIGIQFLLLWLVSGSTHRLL
In short: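 Radioactivity on dried GF/C filters quantified by scintillation after filtration and three cold Tris-HCl (pH 7.4) washes. Incubation ran 60 min at 27° C with [3H]-gabapentin; 10 μM pregabalin gave nonspecific binding.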

[3] = Table 2, dual compounds, [3H]-Gabapentin binding
[4] = binding to α2δ-1, [3H]-Gabapentin

Which Ki [1] does the source give for `CNCC[C@H](Oc1ccc(CN2CCN(C)c3cc(N)ncc3C2=O)cc1)c1cccs1` [Example 305, (S)-8-amino-1-methyl-4-(4-(3-(methylamino)-1-(thiophen-2-yl)propoxy)benzyl)-1,2,3,4-tetrahydro-5H-pyrido[4,3-e][1,4]diazepin-5-one] here?
Its Ki is 100 to 500 nM.

And the Ki [2, 3]?
The Ki was 100 to 500 nM.

And the Ki [2, 4]?
The Ki was 100 to 500 nM.

Which Ki [1] does the source give for `CCc1ncc2c(n1)N(C)CCN(c1cccc(CO[C@H](CCNC)c3ccccc3)c1)C2=O` [Example 356, (R)-2-ethyl-9-methyl-6-(3-((3-(methylamino)-1-phenylpropoxy)methyl)phenyl)-6,7,8,9-tetrahydro-5H-pyrimido[4,5-e][1,4]diazepin-5-one] here?
The Ki was 100 to 500 nM.

What about the Ki [2, 3] of the same compound?
The Ki was 500 to 3000 nM.

And the Ki [2, 4]?
Its Ki is 500 to 3000 nM.

How did the Ki [1] turn out when `CNCC[C@@H](OCc1cccc(N2CCN(C)c3ncncc3C2=O)c1)c1ccccc1` [Example 207, (R)-9-methyl-6-(3-((3-(methylamino)-1-phenylpropoxy)methyl)phenyl)-6,7,8,9-tetrahydro-5H-pyrimido[4,5-e][1,4]diazepin-5-one] was run?
The Ki was 500 to 1000 nM.

And the Ki [2, 3]?
Its Ki is 500 to 3000 nM.

What about the Ki [2, 4] of the same compound?
The Ki was 500 to 3000 nM.

With `CCNc1ncc2c(n1)N(C)CCN(c1cccc(CO[C@H](CCNC)c3ccccc3)c1)C2` [Example 203, (R)—N-ethyl-9-methyl-6-(3-((3-(methylamino)-1-phenylpropoxy)methyl)phenyl)-6,7,8,9-tetrahydro-5H-pyrimido[4,5-e][1,4]diazepin-2-amine] as the compound, how does the Ki [1] read?
Its Ki is 500 to 1000 nM.

And the Ki [2, 3]?
Its Ki is 500 to 3000 nM.

What about the Ki [2, 4] of the same compound?
Its Ki is 500 to 3000 nM.

For `CCc1ncc2c(n1)N(C)CCN(Cc1ccc(OC(CCNC)c3ccccc3)cc1)C2=O` (stereo not drawn) [Example 426, 2-ethyl-9-methyl-6-(4-(3-(methylamino)-1-phenylpropoxy)benzyl)-6,7,8,9-tetrahydro-5H-pyrimido[4,5-e][1,4]diazepin-5-one], which Ki [1] is on record?
Its Ki is < 100 nM.

And the Ki [2, 3]?
The Ki was 500 to 3000 nM.

And the Ki [2, 4]?
The Ki was 500 to 3000 nM.

Which results are given for `CCNc1ncc2c(n1)N(C)CCN(Cc1cccc(COC(CCNC)c3ccccc3)c1)C2=O` (stereo not drawn) [Example 406, 2-(ethylamino)-9-methyl-6-(3-((3-(methylamino)-1-phenylpropoxy)methyl)benzyl)-6,7,8,9-tetrahydro-5H-pyrimido[4,5-e][1,4]diazepin-5-one]?
Ki [1]: 100 to 500 nM; Ki [2, 3]: > 3000 nM; Ki [2, 4]: > 3000 nM

Which Ki [1] does the source give for `CCNc1ncc2c(n1)N(C)CCN(c1cccc(OC(CN(C)C)c3ccccc3)c1)C2=O` (stereo not drawn) [Example 239, 6-(3-(2-(dimethylamino)-1-phenylethoxy)phenyl)-2-(ethylamino)-9-methyl-6,7,8,9-tetrahydro-5H-pyrimido[4,5-e][1,4]diazepin-5-one] here?
The Ki was 500 to 1000 nM.

And the Ki [2, 3]?
The Ki was > 3000 nM.

And the Ki [2, 4]?
The Ki was > 3000 nM.

Which Ki [1] does the source give for `CCNc1ncc2c(n1)N(C)CCN(Cc1cccc(COC(CNC)c3ccccc3)c1)C2=O` (stereo not drawn) [Example 411, 2-(ethylamino)-9-methyl-6-(3-((2-(methylamino)-1-phenylethoxy)methyl)benzyl)-6,7,8,9-tetrahydro-5H-pyrimido[4,5-e][1,4]diazepin-5-one] here?
The Ki was 500 to 1000 nM.

What about the Ki [2, 3] of the same compound?
Its Ki is > 3000 nM.

What about the Ki [2, 4] of the same compound?
Its Ki is > 3000 nM.

Which results are given for `CCNc1ncc2c(n1)N(C)CCN(c1ccc(OC(CNC)c3ccccc3)cc1)C2=O` (stereo not drawn) [Example 159, 2-(ethylamino)-9-methyl-6-(4-(2-(methylamino)-1-phenylethoxy)phenyl)-6,7,8,9-tetrahydro-5H-pyrimido[4,5-e][1,4]diazepin-5-one]?
Ki [1]: > 1000 nM; Ki [2, 3]: > 3000 nM; Ki [2, 4]: > 3000 nM

`CCNc1ncc2c(n1)N(C)CCN(Cc1ccc(O[C@H](CCNC)c3ccccc3)cc1)C2=O` [Example 415, (R)-2-(ethylamino)-9-methyl-6-(4-(3-(methylamino)-1-phenylpropoxy)benzyl)-6,7,8,9-tetrahydro-5H-pyrimido[4,5-e][1,4]diazepin-5-one] was tested. Which Ki [1] did it give?
Its Ki is 100 to 500 nM.

And the Ki [2, 3]?
Its Ki is 500 to 3000 nM.

What about the Ki [2, 4] of the same compound?
Its Ki is 500 to 3000 nM.

Which Ki [1] does the source give for `CCNc1ncc2c(n1)N(C)CCN(c1cccc(OCCN(C)Cc3ccccc3)c1)C2=O` [Example 264, 6-(3-(2-(benzyl(methyl)amino)ethoxy)phenyl)-2-(ethylamino)-9-methyl-6,7,8,9-tetrahydro-5H-pyrimido[4,5-e][1,4]diazepin-5-one] here?
The Ki was 100 to 500 nM.

What about the Ki [2, 3] of the same compound?
The Ki was 100 to 500 nM.

What about the Ki [2, 4] of the same compound?
The Ki was 100 to 500 nM.

`CNCCC(OCc1cccc(N2CCN(C)c3nc(SC)ncc3C2=O)c1)c1cccs1` (stereo not drawn) [Example 208, 9-Methyl-6-(3-((3-(methylamino)-1-(thiophen-2-yl)propoxy)methyl)phenyl)-2-(methylthio)-6,7,8,9-tetrahydro-5H-pyrimido[4,5-e][1,4]diazepin-5-one] was tested. Which Ki [1] did it give?
The Ki was 500 to 1000 nM.

What about the Ki [2, 3] of the same compound?
Its Ki is 500 to 3000 nM.

What about the Ki [2, 4] of the same compound?
Its Ki is 500 to 3000 nM.

With `CNCCC(Oc1ccc(CN2CCN(C)c3nc(C)ncc3C2=O)cc1)c1ccccc1` (stereo not drawn) [Example 425, 2,9-dimethyl-6-(4-(3-(methylamino)-1-phenylpropoxy)benzyl)-6,7,8,9-tetrahydro-5H-pyrimido[4,5-e][1,4]diazepin-5-one] as the compound, how does the Ki [1] read?
Its Ki is < 100 nM.

What about the Ki [2, 3] of the same compound?
Its Ki is > 3000 nM.

What about the Ki [2, 4] of the same compound?
Its Ki is > 3000 nM.

For `CCNc1ncc2c(n1)N(C)CCN(c1cccc(CO[C@@H](CCN(C)C)c3ccccc3)c1)C2=O` [Example 237, (S)-6-(3-((3-(dimethylamino)-1-phenylpropoxy)methyl)phenyl)-2-(ethylamino)-9-methyl-6,7,8,9-tetrahydro-5H-pyrimido[4,5-e][1,4]diazepin-5-one], which Ki [1] is on record?
The Ki was > 1000 nM.

And the Ki [2, 3]?
The Ki was 500 to 3000 nM.

And the Ki [2, 4]?
Its Ki is 500 to 3000 nM.

`CNCCC(OCc1ccc(N2CCN(C)c3nc(SC)ncc3C2=O)cc1)c1cccs1` (stereo not drawn) [Example 328, 9-methyl-6-(4-((3-(methylamino)-1-(thiophen-2-yl)propoxy)methyl)phenyl)-2-(methylthio)-6,7,8,9-tetrahydro-5H-pyrimido[4,5-e][1,4]diazepin-5-one] was tested. Which Ki [1] did it give?
The Ki was < 100 nM.

What about the Ki [2, 3] of the same compound?
Its Ki is > 3000 nM.

And the Ki [2, 4]?
Its Ki is > 3000 nM.

What does the source list for `CCNc1ncc2c(n1)N(C)CCN(c1cccc(C3CCN(CCc4ccccc4)CC3)c1)C2=O` [Example 261, 2-(ethylamino)-9-methyl-6-(3-(1-phenethylpiperidin-4-yl)phenyl)-6,7,8,9-tetrahydro-5H-pyrimido[4,5-e][1,4]diazepin-5-one]?
Ki [1]: 100 to 500 nM; Ki [2, 3]: 100 to 500 nM; Ki [2, 4]: 100 to 500 nM

What does the source list for `CNCC[C@@H](OCc1cccc(N2CCN(C)c3nc(N)ncc3C2=O)c1)c1ccccc1` [Example 195, (R)-2-amino-9-methyl-6-(3-((3-(methylamino)-1-phenylpropoxy)methyl)phenyl)-6,7,8,9-tetrahydro-5H-pyrimido[4,5-e][1,4]diazepin-5-one]?
Ki [1]: 500 to 1000 nM; Ki [2, 3]: 500 to 3000 nM; Ki [2, 4]: 100 to 500 nM

How did the Ki [1] turn out when `CNCCC(OCc1cccc(N2CCN(C)c3nc(NCc4ccccc4)ncc3C2=O)c1)c1ccccc1` (stereo not drawn) [Example 335, 2-(benzylamino)-9-methyl-6-(3-((3-(methylamino)-1-phenylpropoxy)methyl)phenyl)-6,7,8,9-tetrahydro-5H-pyrimido[4,5-e][1,4]diazepin-5-one] was run?
The Ki was < 100 nM.

What about the Ki [2, 3] of the same compound?
Its Ki is 500 to 3000 nM.

What about the Ki [2, 4] of the same compound?
The Ki was 500 to 3000 nM.

What does the source list for `CNCC[C@H](Oc1ccc(CN2CCN(C)c3nc(N(C)C)ncc3C2=O)cc1)c1cccs1` [Example 419, (S)-2-(dimethylamino)-9-methyl-6-(4-(3-(methylamino)-1-(thiophen-2-yl)propoxy)benzyl)-6,7,8,9-tetrahydro-5H-pyrimido[4,5-e][1,4]diazepin-5-one]?
Ki [1]: 100 to 500 nM; Ki [2, 3]: 100 to 500 nM; Ki [2, 4]: 100 to 500 nM

For `CCNc1ncc2c(n1)N(C)CCN(c1cccc(-n3cc(CNCC4CC4)nn3)c1)C2=O` [Example 285, 6-(3-(4-(((cyclopropylmethyl)amino)methyl)-1H-1,2,3-triazol-1-yl)phenyl)-2-(ethylamino)-9-methyl-6,7,8,9-tetrahydro-5H-pyrimido[4,5-e][1,4]diazepin-5-one], which Ki [1] is on record?
The Ki was 100 to 500 nM.

And the Ki [2, 3]?
Its Ki is 100 to 500 nM.

And the Ki [2, 4]?
The Ki was 100 to 500 nM.

What does the source list for `CCNc1cc2c(cn1)C(=O)N(Cc1ccc(O[C@@H](CCNC)c3cccs3)cc1)CCN2C` [Example 383, (S)-8-(ethylamino)-1-methyl-4-(4-(3-(methylamino)-1-(thiophen-2-yl)propoxy)benzyl)-1,2,3,4-tetrahydro-5H-pyrido[4,3-e][1,4]diazepin-5-one]?
Ki [1]: 100 to 500 nM; Ki [2, 3]: 100 to 500 nM; Ki [2, 4]: 100 to 500 nM

Which results are given for `CNCCC(Oc1cccc(CN2CCN(C)c3nc(SC)ncc3C2=O)c1)c1ccccc1` (stereo not drawn) [Example 366, 9-methyl-6-(3-(3-(methylamino)-1-phenylpropoxy)benzyl)-2-(methylthio)-6,7,8,9-tetrahydro-5H-pyrimido[4,5-e][1,4]diazepin-5-one]?
Ki [1]: 500 to 1000 nM; Ki [2, 3]: > 3000 nM; Ki [2, 4]: > 3000 nM

How did the Ki [1] turn out when `CCNc1ncc2c(n1)N(C)CCN(c1cccc(-n3cc(CN(C)CCc4ccccc4)cn3)c1)C2=O` [Example 252, 2-(ethylamino)-9-methyl-6-(3-(4-((methyl(phenethyl)amino)methyl)-1H-pyrazol-1-yl)phenyl)-6,7,8,9-tetrahydro-5H-pyrimido[4,5-e][1,4]diazepin-5-one] was run?
Its Ki is 100 to 500 nM.

What about the Ki [2, 3] of the same compound?
The Ki was 500 to 3000 nM.

And the Ki [2, 4]?
The Ki was 500 to 3000 nM.

For `CNCC[C@@H](OCc1cccc(N2CCN(C)c3nc(SC)ncc3C2=O)c1)c1ccccc1` [Example 164, (R)-9-methyl-6-(3-((3-(methylamino)-1-phenylpropoxy)methyl)phenyl)-2-(methylthio)-6,7,8,9-tetrahydro-5H-pyrimido[4,5-e][1,4]diazepin-5-one], which Ki [1] is on record?
The Ki was 100 to 500 nM.

What about the Ki [2, 3] of the same compound?
Its Ki is 100 to 500 nM.

And the Ki [2, 4]?
Its Ki is 100 to 500 nM.
